Results: paper PMC9873984, “Membrane cholesterol regulates inhibition and substrate transport by the glycine transporter, GlyT2” (Life Science Alliance, 2023)

Test system: Xenopus laevis oocytes
Assay: Quantification of cholesterol content of oocytes (Amplex Red)
Assay type: cell-based
Conditions: 15 mM for 30 min at 32°C; normalized to control oocytes
Procedure: The cell was then unclamped and removed from the electrophysiology rig and placed in an incubator at 32°C in a solution containing 15 mM MβCD for 30 min. The oocyte was then replaced in the electrophysiology rig and washed for 10 min in recording buffer, the voltage clamp was re-established, and the glycine transport currents were remeasured. […] Under these conditions, MβCD caused a 44% reduction in membrane cholesterol content, which is consistent with previous studies in oocytes (Fig 4) ([Santiago et al, 2001]; [Sadler & Jacobs, 2004]).
Figure 4. Cholesterol levels of control and MβCD-treated Xenopus laevis oocytes. Groups of six oocytes were incubated in 0 mM (control) or 15 mM MβCD for 30 min at 32°C. After incubation, oocytes were lysed in 1% Triton X-100 by vortexing and manually disrupting the membranes with forceps. Cell lysates were centrifuged, and the cholesterol content of the supernatant was quantified using the Amplex Red method. […]
Control and MβCD-treated oocytes were lysed in 1% Triton X-100 (Sigma-Aldrich) by vortexing and manually disrupting the membranes with forceps. […] The supernatant was then treated in accordance with the manufacturer’s protocol for the Amplex Red Cholesterol Assay Kit (Thermo Fisher Scientific) to quantify differences in cholesterol content.

## methyl-β-cyclodextrin [MβCD]
  Reduction in membrane cholesterol content: 44%
